What was measured:
[1] = Evaluation of compounds A-C as Ca^2+ probes (fluorescence intensity vs free Ca^2+); format: binding
Procedure: To investigate whether the synthesized compounds A, B, and C can function as Ca^2+ probes, the absorption and fluorescence spectra were measured in solutions of various Ca^2+ concentrations. FIG. 7 represents the absorption spectra (left), emission spectra (center), and fluorescence spectra (right) of 1 μM of compounds A, B, and C in the presence of various concentrations ([…])propanesulfonic acid (MOPS) containing […] and […] (EGTA). The excitation wavelengths were 646 nm (A), 648 nm (B), and 635 nm (C).

[2] = Absorption and fluorescence spectra (photophysical properties) of compounds A-C in solutions of various Ca^2+ concentrations; format: physicochemical; settings: 1 μM compound, pH 7.2 MOPS
Procedure: To investigate whether the synthesized compounds A, B, and C can function as Ca^2+ probes, the absorption and fluorescence spectra were measured in solutions of various Ca^2+ concentrations. FIG. 7 represents the absorption spectra (left), emission spectra (center), and fluorescence spectra (right) of 1 μM of compounds A, B, and C in the presence of various concentrations (0, 0.017, 0.038, 0.065, 0.100, 0.150, 0.225, 0.351, […]) of free Ca^2+ in pH 7.2 30 mM 3-(N-morpholino)propanesulfonic acid (MOPS) containing […] and […] (EGTA). The excitation wavelengths were 646 nm (A), 648 nm (B), and 635 nm (C).

[3] = 39 μM vs 0 μM free [Ca^2+] buffer
[4] = In 0 μM free [Ca^2+] buffer (absence of Ca^2+)

SMILES | Activation Ratio [1, 3] | Activation Ratio ([1]; with vs without Ca^2+) [fold] | Φfl [2, 4] | λabs ([2]; In 0 μM free [Ca^2+] buffer) [nm] | λfl ([2]; In 0 μM free [Ca^2+] buffer) [nm] | Φfl ([2]; In 39 μM free [Ca^2+] buffer) | λabs ([2]; In 39 μM free [Ca^2+] buffer) [nm] | λfl ([2]; In 39 μM free [Ca^2+] buffer) [nm]
Cc1ccc(N(CC(=O)O)CC(=O)O)c(OCCOc2cc(NC(=O)c3ccc(C4=C5C=CC(=[N+](C)C)C=C5[Si](C)(C)c5cc(N(C)C)ccc54)c(C(=O)O)c3)ccc2N(CC(=O)O)CC(=O)O)c1 [Compound A] | ×2.5 | 2.5 | 0.10 | 646 | 673 | 0.25 | 646 | 674
Cc1ccc(N(CC(=O)O)CC(=O)O)c(OCCOc2cc(NC(=O)c3ccc(C(=O)O)c(C4=C5C=CC(=[N+](C)C)C=C5[Si](C)(C)c5cc(N(C)C)ccc54)c3)ccc2N(CC(=O)O)CC(=O)O)c1 [Compound B] | ×7.3 | – | 0.04 | 648 | 671 | 0.29 | 647 | 672
Cc1ccc(N(CC(=O)O)CC(=O)O)c(OCCOc2cc(NC(=O)C/[N+](C)=C3/C=CC4=C(c5ccccc5C(=O)[O-])c5ccc(N(C)C)cc5[Si](C)(C)C4=C3)ccc2N(CC(=O)O)CC(=O)O)c1 [Compound C] | ×26 | 26 | 0.01 | 637 | 664 | 0.26 | 636 | 661

— patent publication US20200087326A1, “DEEP RED FLUORESCENT PROBE” (The University of Tokyo, priority 2016, published 2020)
